Reference: ChEMBL document CHEMBL6096732 (J Med Chem, 2025)
Calls of active or inactive are those of the source. No cut-off for these calls is given here.

How the values were obtained:
4T1 [1] = test: Downregulation of PARP1 expression in mouse 4T1 cells at 5 uM by DAPI staining based immunofluorescence analysis; assay type: functional, cell-based
[2] = Toxicity in male C57BL/6 mouse implanted with mouse B16-F10 cells assessed as histopathological changes in liver at 50 mg/kg, po co-administered with NP-19 as once daily dosage via gavage for 14 days by HandE staining based microscopic analysis; assay type: organism-based; conditions: in vivo, 336 h, time 14 day
[3] = AUC (0 to infinity) in male Sprague-Dawley rat at 20 mg/kg, po measured after 12 hrs by LC-MS/MS analysis; assay type: ADME, organism-based; conditions: in vivo
HCT-116 = test: cells; assay type: functional, cell-based; conditions: Homo sapiens, HCT-116, 72 h
Description: Antiproliferative activity against human HCT-116 cells assessed as inhibition of cell growth incubated for 72 hrs by MTT assay

4T1 [4] = test: Antitumor activity against mouse 4T1 cells implanted in female BALB/c mouse model assessed as decrease in PAPR1 expression in tumor administrated orally as once daily dose via gavage for 14 days by DAPI staining based immunofluorescence analysis; assay type: functional, cell-based; conditions: route po, time 14.0 day
B16-F10 [5] = test: Induction of DNA damage in mouse B16-F10 cells assessed as increase in gamma-H2AX expression at 2 uM incubated for 24 hrs by Western blot analysis; assay type: functional, cell-based
[6] = Toxicity in male C57BL/6 mouse implanted with mouse B16-F10 cells assessed as histopathological changes in liver at 50 mg/kg, po administered once daily for 14 days by HandE staining based microscopic analysis; assay type: organism-based; conditions: in vivo, 336 h, time 14 day
[7] = Ratio of AUC (0 to t) to AUC (0 to infinity) in male Sprague-Dawley rat at 2 mg/kg, iv measured after 12 hrs by LC-MS/MS analysis; assay type: ADME, organism-based; conditions: in vivo
[8] = target: T1, Histone deacetylase 3 (Mus musculus) (UniProt O88895); test: In vivo inhibition of HDAC3 in male C57BL/6 mouse model implanted with mouse B16-F10 cells assessed as increase in acetylated histone H3 level at 50 mg/kg, po administered once daily via gavage for 14 days by Western blot analysis; assay type: functional, organism-based; conditions: time 14.0 day
T1 sequence (whole entry): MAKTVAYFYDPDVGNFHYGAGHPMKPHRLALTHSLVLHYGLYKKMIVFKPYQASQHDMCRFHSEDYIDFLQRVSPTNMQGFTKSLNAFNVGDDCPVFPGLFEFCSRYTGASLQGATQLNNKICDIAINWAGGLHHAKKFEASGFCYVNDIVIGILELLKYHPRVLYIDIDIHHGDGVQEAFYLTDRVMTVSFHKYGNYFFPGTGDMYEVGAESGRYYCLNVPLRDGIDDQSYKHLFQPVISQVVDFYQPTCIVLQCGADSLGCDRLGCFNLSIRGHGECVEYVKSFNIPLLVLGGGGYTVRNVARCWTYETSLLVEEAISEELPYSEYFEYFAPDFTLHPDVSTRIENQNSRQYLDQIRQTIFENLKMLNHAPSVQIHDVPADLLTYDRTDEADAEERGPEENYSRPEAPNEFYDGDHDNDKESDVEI

[9] = Ratio of AUC (0 to t) to AUC (0 to infinity) in male Sprague-Dawley rat at 20 mg/kg, po measured after 12 hrs by LC-MS/MS analysis; assay type: ADME, organism-based; conditions: in vivo
4T1 [10] = test: Antitumor activity against mouse 4T1 cells implanted in female BALB/c mouse model assessed as induction of DNA damage by measuring increase in gamma-H2AX expression in tumor administrated orally as once daily dose via gavage for 14 days by Western blot analysis; assay type: functional, cell-based; conditions: route po, time 14.0 day
[11] = MRT (0 to infinity) in male Sprague-Dawley rat at 20 mg/kg, po measured after 12 hrs by LC-MS/MS analysis; assay type: ADME, organism-based; conditions: in vivo
[12] = target: Programmed cell death 1 ligand 1 (Mus musculus) (UniProt Q9EP73); test: Induction of PD-L1 degradation in mouse B16-F10 cells assessed as decrease in PD-L1 protein level at 5 uM incubated for 24 hrs by DAPI staining based immunofluorescence analysis; assay type: cell-based
Chain of Programmed cell death 1 ligand 1 (Mus musculus) (Q9EP73 whole entry): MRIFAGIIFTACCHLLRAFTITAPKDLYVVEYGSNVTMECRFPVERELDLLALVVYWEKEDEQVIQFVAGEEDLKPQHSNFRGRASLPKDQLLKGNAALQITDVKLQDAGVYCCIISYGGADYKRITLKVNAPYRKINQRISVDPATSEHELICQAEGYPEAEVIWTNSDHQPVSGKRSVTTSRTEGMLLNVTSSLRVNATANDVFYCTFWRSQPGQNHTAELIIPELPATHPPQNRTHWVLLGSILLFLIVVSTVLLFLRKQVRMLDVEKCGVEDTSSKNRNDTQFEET

[13] = target: Polyamine deacetylase HDAC10 (Homo sapiens, UniProt Q969S8); test: Inhibition of recombinant HDAC10 (unknown origin) preincubated for 1 hr followed by substrate addition and measured after 2 hrs by fluorescence based micro plate reader analysis
Chain of Polyamine deacetylase HDAC10 (Q969S8 whole entry): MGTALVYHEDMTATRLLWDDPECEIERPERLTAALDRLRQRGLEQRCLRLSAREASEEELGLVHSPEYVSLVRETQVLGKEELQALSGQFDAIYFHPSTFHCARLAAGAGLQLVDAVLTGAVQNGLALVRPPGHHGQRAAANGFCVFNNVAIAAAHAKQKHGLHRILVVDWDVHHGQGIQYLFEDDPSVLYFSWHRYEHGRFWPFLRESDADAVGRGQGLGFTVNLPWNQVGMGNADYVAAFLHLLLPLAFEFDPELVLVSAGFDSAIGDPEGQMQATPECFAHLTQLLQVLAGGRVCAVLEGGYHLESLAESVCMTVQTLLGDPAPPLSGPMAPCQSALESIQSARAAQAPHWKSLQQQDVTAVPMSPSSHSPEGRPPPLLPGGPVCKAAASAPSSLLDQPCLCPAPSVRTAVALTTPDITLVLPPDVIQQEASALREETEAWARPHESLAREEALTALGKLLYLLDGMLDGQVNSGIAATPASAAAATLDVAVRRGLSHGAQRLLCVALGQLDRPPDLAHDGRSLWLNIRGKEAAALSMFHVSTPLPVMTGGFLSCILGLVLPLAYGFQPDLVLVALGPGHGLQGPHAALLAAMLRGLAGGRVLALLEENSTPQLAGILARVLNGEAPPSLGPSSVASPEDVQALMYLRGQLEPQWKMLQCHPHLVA

4T1 [14] = test: Antitumor activity against mouse 4T1 cells implanted in female BALB/c mouse model assessed as decrease in PAPR1 fluorescence intensity in tumor co-administrated orally with olaparib as once daily dose via gavage for 14 days by DAPI staining based immunofluorescence analysis; assay type: functional, cell-based; conditions: route po, time 14.0 day
[15] = Cmax in male Sprague-Dawley rat at 2 mg/kg, iv measured after 12 hrs by LC-MS/MS analysis; assay type: ADME, organism-based; conditions: in vivo
Histone deacetylase 1 = Histone deacetylase 1 (Homo sapiens, UniProt Q13547); conditions: dose 500.0 nM, time 3.0 hrs
Chain of Histone deacetylase 1 (Q13547 whole entry): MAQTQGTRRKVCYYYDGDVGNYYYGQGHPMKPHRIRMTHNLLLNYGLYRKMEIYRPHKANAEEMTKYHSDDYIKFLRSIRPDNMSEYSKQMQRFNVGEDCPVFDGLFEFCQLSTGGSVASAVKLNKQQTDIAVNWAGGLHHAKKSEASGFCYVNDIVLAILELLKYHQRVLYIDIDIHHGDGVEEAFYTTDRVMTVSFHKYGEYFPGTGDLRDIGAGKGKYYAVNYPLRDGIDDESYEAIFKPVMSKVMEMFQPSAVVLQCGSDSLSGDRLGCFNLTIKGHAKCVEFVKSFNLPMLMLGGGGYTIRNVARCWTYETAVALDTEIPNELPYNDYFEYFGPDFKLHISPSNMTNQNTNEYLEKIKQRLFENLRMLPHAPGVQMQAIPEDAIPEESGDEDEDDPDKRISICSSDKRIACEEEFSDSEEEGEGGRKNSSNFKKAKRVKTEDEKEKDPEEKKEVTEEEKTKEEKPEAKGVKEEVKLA

4T1 [16] = test: Induction of DNA damage in mouse 4T1 cells assessed as increase in gamma-H2AX expression at 2 uM incubated for 24 hrs in presence of olaparib by Western blot analysis; assay type: functional, cell-based
Mus musculus [17] = test: Immunomodulatory activity in male C57BL/6 mouse model implanted with mouse B16-F10 cells assessed as increase in CD3+ CD8+ T cells in tumor at 50 mg/kg, po co-administered with NP-19 as once daily dosage via gavage for 14 days by flow cytometric analysis (reference value: 3.2 %); assay type: functional; conditions: time 14 day
Mus musculus [18] = test: In vivo induction of PD-L1 degradation in male C57BL/6 mouse model implanted with mouse B16-F10 cells assessed as decrease in PD-L1 protein expression in tumor at 50 mg/kg, po co-administered with NP-19 as once daily dosage via gavage for 14 days by DAPI staining based immunofluorescence analysis; assay type: functional, organism-based; conditions: time 14.0 day
Histone deacetylase 5 = Histone deacetylase 5 (Homo sapiens, UniProt Q9UQL6); test: Inhibition of recombinant HDAC5 (unknown origin) using Boc-Lys(trifluoroacetyl)-AMC as substrate preincubated for 1 hr followed by substrate addition and measured after 2 hrs by fluorescence based micro plate reader analysis
Chain of Histone deacetylase 5 (Q9UQL6 whole entry): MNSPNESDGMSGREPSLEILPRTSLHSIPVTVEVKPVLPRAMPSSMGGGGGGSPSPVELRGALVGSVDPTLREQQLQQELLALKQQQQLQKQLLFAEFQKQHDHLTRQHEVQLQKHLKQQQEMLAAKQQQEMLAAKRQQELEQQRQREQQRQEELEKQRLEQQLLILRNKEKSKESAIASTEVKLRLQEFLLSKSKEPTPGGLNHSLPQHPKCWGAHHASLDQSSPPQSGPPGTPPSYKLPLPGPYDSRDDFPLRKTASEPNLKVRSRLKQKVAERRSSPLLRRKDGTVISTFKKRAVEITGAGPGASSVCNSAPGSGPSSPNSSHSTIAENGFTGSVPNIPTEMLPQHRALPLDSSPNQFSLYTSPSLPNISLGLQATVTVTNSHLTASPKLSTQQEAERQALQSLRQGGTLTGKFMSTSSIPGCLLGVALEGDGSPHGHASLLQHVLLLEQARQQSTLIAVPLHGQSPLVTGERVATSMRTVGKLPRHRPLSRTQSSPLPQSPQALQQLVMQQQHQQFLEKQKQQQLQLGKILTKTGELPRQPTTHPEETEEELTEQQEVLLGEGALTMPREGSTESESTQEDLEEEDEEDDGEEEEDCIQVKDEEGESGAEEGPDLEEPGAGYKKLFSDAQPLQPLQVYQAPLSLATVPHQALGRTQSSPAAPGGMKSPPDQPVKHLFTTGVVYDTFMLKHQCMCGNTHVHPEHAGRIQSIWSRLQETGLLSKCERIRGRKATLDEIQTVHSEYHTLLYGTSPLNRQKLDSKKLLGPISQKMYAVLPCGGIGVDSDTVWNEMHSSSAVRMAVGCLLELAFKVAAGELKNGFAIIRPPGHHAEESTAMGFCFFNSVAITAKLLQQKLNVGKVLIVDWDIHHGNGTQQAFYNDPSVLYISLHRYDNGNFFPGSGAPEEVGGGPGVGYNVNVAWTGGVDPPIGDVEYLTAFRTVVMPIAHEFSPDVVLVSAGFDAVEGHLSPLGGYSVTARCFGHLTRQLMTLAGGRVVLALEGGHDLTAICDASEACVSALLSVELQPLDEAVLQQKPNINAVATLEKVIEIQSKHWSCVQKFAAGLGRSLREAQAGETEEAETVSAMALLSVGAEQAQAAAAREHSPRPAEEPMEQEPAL

[19] = VRT (0 to infinity) in male Sprague-Dawley rat at 2 mg/kg, iv measured after 12 hrs by LC-MS/MS analysis; assay type: ADME, organism-based; conditions: in vivo
B16-F10 [20] = test: Synergistic antitumor activity against mouse B16-F10 cells implanted in male C57BL/6 mouse model assessed as tumor growth inhibition at 50 mg/kg, po co-administered with NP-19 as once daily dosage via gavage for 14 days relative to control; assay type: functional; conditions: B16-F10, 336 h, time 14 day, read-out: TGI
[21] = target: Programmed cell death 1 ligand 1 (Mus musculus) (UniProt Q9EP73); test: Induction of PD-L1 degradation in mouse B16-F10 cells assessed as decrease in PD-L1 protein level at 5 uM preincubated with bafilomycin A1 for 4 hrs followed by compound addition and measured after 24 hrs by Western blot analysis; assay type: cell-based
[22] = Clearance in male Sprague-Dawley rat at 2 mg/kg, iv measured after 12 hrs by LC-MS/MS analysis; assay type: ADME, organism-based; conditions: in vivo
[23] = VRT (0 to t) in male Sprague-Dawley rat at 20 mg/kg, po measured after 12 hrs by LC-MS/MS analysis; assay type: ADME, organism-based; conditions: in vivo
B16-F10 [24] = test: Inhibition of cell migration in mouse B16-F10 cells incubated for 24 to 48 hrs by crystal violet staining based microscopic analysis; assay type: functional; conditions: dose 5-20 µM, time 24-48 hrs
[25] = Apparent volume of distribution in male Sprague-Dawley rat at 20 mg/kg, po measured after 12 hrs by LC-MS/MS analysis; assay type: ADME, organism-based; conditions: in vivo

AUC(0-inf) [3]: 8170 ng·h/mL
IC50 (HCT-116): 6.82 µM
Ratio AUC [7]: 99.95%
inhibition [8]: Active
Ratio AUC [9]: 96.65%
MRT inf [11]: 4.9 h
IC50 [13]: > 10 µM
Cmax [15]: 1040 ng/mL
inhibition (Histone deacetylase 1): 14%
IC50 (Histone deacetylase 5): > 10 µM
VRT [19]: 0.664 hr2
clearance [22]: 39.6 mL/min/kg
VRT(t) [23]: 7.932 hr2
Vz [25]: 7.322 L/kg
SMILES: CCCNNC(=O)c1ccc(Cn2c3ccccc3c3c(-c4ccccn4)nc4ccccc4c32)cc1
Activity (4T1 [1]): Active
Activity [2]: Non-toxic
Activity (4T1 [4]): Active; Comparable To The Effect Of Olaparib
Activity (B16-F10 [5]): Active
Activity [6]: Non-toxic
Activity (4T1 [10]): Active
Activity [12]: Active
Activity (4T1 [14]): Active
Activity (4T1 [16]): Active
Activity (Mus musculus [17]): 32%
Activity (Mus musculus [18]): Active
inhibition in vivo at 50 mg/kg (B16-F10 [20]): 80%
Activity [21]: Not active; Compound Degrades Pd-L1 Through Lysosomal Pathway
inhibition (B16-F10 [24]): Dose-dependent-effect
